Among the data in ChEMBL document CHEMBL1140781, “4-Aminopyridine derivatives with anticholinesterase and antiamnesic activity” (Bioorg Med Chem Lett, 2008) are Ki and Time values, retold here.

Experiment [1] deals with Cholinesterase (Homo sapiens, UniProt P06276). Put plainly: Inhibition of butyrylcholinesterase.
Experiment [2] deals with Acetylcholinesterase (Homo sapiens, UniProt P22303). Put plainly: Inhibition of acetylcholinesterase.
Experiment [3] has as its system Rattus norvegicus. Put plainly: Antiamnesic activity in scopolamine-induced memory deficit rat assessed as retention trial latency time at 50 mg/kg, ip after 24 hrs. It counts as functional. Particulars: route intraperitoneal.
Experiment [4] deals with Rattus norvegicus. Put plainly: Antiamnesic activity in scopolamine-induced memory deficit rat assessed as training trial latency time at 50 mg/kg, ip. In kind it is functional. The conditions noted are these: route intraperitoneal.
Experiment [5] deals with Rattus norvegicus. Put plainly: Antiamnesic activity in scopolamine-induced memory deficit rat assessed as retention trial latency time at 0.01 mg/kg, ip after 24 hrs. In kind it is functional. The conditions noted are these: route intraperitoneal.
Experiment [6] concerns Rattus norvegicus. Put plainly: Antiamnesic activity in scopolamine-induced memory deficit rat assessed as retention trial latency time at 0.5 mg/kg, ip after 24 hrs. It counts as functional. Particulars: route intraperitoneal.
In experiment [7] the test system is Rattus norvegicus. Put plainly: Antiamnesic activity in scopolamine-induced memory deficit rat assessed as training trial latency time at 0.01 mg/kg, ip. It counts as functional. Particulars: route intraperitoneal.
Experiment [8] relates to Rattus norvegicus. Put plainly: Antiamnesic activity in scopolamine-induced memory deficit rat assessed as training trial latency time at 0.5 mg/kg, ip. Particulars: route intraperitoneal. It counts as functional.
The subject of experiment [9] is Rattus norvegicus. Put plainly: Antiamnesic activity in scopolamine-induced memory deficit rat assessed as training trial latency time at 0.02 mg/kg, ip. It counts as functional. Particulars: route intraperitoneal.
In experiment [10] the test system is Rattus norvegicus. Put plainly: Antiamnesic activity in scopolamine-induced memory deficit rat assessed as training trial latency time at 100 mg/kg, ip. In kind it is functional. Particulars: route intraperitoneal.
For experiment [11], the system named is Rattus norvegicus. Put plainly: Antiamnesic activity in scopolamine-induced memory deficit rat assessed as training trial latency time at 1.0 mg/kg, ip. In kind it is functional. The conditions noted are these: route intraperitoneal.
The subject of experiment [12] is Rattus norvegicus. Put plainly: Antiamnesic activity in scopolamine-induced memory deficit rat assessed as retention trial latency time at 100 mg/kg, ip after 24 hrs. In kind it is functional. The conditions noted are these: route intraperitoneal.
Experiment [13] deals with Rattus norvegicus. Put plainly: Antiamnesic activity in scopolamine-induced memory deficit rat assessed as retention trial latency time at 1.0 mg/kg, ip after 24 hrs. In kind it is functional. Particulars: route intraperitoneal.
Experiment [14] has as its system Rattus norvegicus. Put plainly: Antiamnesic activity in scopolamine-induced memory deficit rat assessed as retention trial latency time at 0.02 mg/kg, ip after 24 hrs. In kind it is functional. The conditions noted are these: route intraperitoneal.
Experiment [15] concerns Rattus norvegicus. Put plainly: Antiamnesic activity in scopolamine-induced memory deficit rat assessed as training trial latency time at 0.005 mg/kg, ip. Particulars: route intraperitoneal. It counts as functional.
The test system of experiment [16] is Rattus norvegicus. Put plainly: Antiamnesic activity in scopolamine-induced memory deficit rat assessed as retention trial latency time at 0.1 mg/kg, ip after 24 hrs. It counts as functional. The conditions noted are these: route intraperitoneal.
Experiment [17] relates to Rattus norvegicus. Put plainly: Antiamnesic activity in scopolamine-induced memory deficit rat assessed as training trial latency time at 0.001 mg/kg, ip. In kind it is functional. Particulars: route intraperitoneal.
Experiment [18] deals with Rattus norvegicus. Put plainly: Antiamnesic activity in scopolamine-induced memory deficit rat assessed as retention trial latency time at 0.001 mg/kg, ip after 24 hrs. In kind it is functional. The conditions noted are these: route intraperitoneal.
Experiment [19] concerns Rattus norvegicus. Put plainly: Antiamnesic activity in scopolamine-induced memory deficit rat assessed as retention trial latency time at 0.005 mg/kg, ip after 24 hrs. It counts as functional. Particulars: route intraperitoneal.
The test system of experiment [20] is Rattus norvegicus. Put plainly: Antiamnesic activity in scopolamine-induced memory deficit rat assessed as training trial latency time at 0.1 mg/kg, ip. It counts as functional. The conditions noted are these: route intraperitoneal.
Experiment [21] concerns Rattus norvegicus. Put plainly: Antiamnesic activity in scopolamine-induced memory deficit rat assessed as retention trial latency time at 34.73 mg/kg, ip after 24 hrs. It counts as functional. The conditions noted are these: route intraperitoneal.
Experiment [22] deals with Rattus norvegicus. Put plainly: Antiamnesic activity in scopolamine-induced memory deficit rat assessed as training trial latency time at 34.73 mg/kg, ip. Particulars: route intraperitoneal. In kind it is functional.
For experiment [23], the system named is Rattus norvegicus. Put plainly: Antiamnesic activity in scopolamine-induced memory deficit rat assessed as retention trial latency time at 17.37 mg/kg, ip after 24 hrs. It counts as functional. Particulars: route intraperitoneal.
Experiment [24] concerns Rattus norvegicus. Put plainly: Antiamnesic activity in scopolamine-induced memory deficit rat assessed as training trial latency time at 17.37 mg/kg, ip. In kind it is functional. Particulars: route intraperitoneal.
Experiment [25] concerns Rattus norvegicus. Put plainly: Antiamnesic activity in scopolamine-induced memory deficit rat assessed as retention trial latency time at 0.24 mg/kg, ip after 24 hrs. In kind it is functional. Particulars: route intraperitoneal.
Experiment [26] relates to Rattus norvegicus. Put plainly: Antiamnesic activity in scopolamine-induced memory deficit rat assessed as training trial latency time at 1.2 mg/kg, ip. In kind it is functional. The conditions noted are these: route intraperitoneal.
Experiment [27] relates to Rattus norvegicus. Put plainly: Antiamnesic activity in scopolamine-induced memory deficit rat assessed as training trial latency time at 2.4 mg/kg, ip. It counts as functional. The conditions noted are these: route intraperitoneal.
Experiment [28] deals with Rattus norvegicus. Put plainly: Antiamnesic activity in scopolamine-induced memory deficit rat assessed as retention trial latency time at 2.4 mg/kg, ip after 24 hrs. It counts as functional. Particulars: route intraperitoneal.
Experiment [29] has as its system Rattus norvegicus. Put plainly: Antiamnesic activity in scopolamine-induced memory deficit rat assessed as retention trial latency time at 0.024 mg/kg, ip after 24 hrs. In kind it is functional. Particulars: route intraperitoneal.
The test system of experiment [30] is Rattus norvegicus. Put plainly: Antiamnesic activity in scopolamine-induced memory deficit rat assessed as training trial latency time at 0.24 mg/kg, ip. The conditions noted are these: route intraperitoneal. In kind it is functional.
The test system of experiment [31] is Rattus norvegicus. Put plainly: Antiamnesic activity in scopolamine-induced memory deficit rat assessed as training trial time at 0.024 mg/kg, ip. It counts as functional. The conditions noted are these: route intraperitoneal.
The subject of experiment [32] is Rattus norvegicus. Put plainly: Antiamnesic activity in scopolamine-induced memory deficit rat assessed as retention trial latency time at 1.2 mg/kg, ip after 24 hrs. In kind it is functional. The conditions noted are these: route intraperitoneal.

Sequence of Cholinesterase (P06276 whole entry): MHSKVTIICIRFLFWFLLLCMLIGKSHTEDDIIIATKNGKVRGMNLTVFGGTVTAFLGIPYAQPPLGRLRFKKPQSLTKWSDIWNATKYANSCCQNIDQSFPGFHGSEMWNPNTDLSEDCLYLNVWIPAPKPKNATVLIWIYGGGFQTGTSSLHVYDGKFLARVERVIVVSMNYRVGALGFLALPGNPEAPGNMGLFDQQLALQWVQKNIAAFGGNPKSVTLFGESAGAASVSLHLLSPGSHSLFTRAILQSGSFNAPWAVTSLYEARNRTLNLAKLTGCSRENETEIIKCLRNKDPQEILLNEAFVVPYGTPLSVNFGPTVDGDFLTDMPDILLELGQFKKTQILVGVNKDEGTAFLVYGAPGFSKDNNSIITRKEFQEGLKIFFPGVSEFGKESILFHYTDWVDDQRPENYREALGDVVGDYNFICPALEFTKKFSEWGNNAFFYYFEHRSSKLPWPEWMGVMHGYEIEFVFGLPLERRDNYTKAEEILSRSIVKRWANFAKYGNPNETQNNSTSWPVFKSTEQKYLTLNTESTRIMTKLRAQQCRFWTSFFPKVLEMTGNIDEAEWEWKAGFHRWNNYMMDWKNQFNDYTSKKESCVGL
Sequence of Acetylcholinesterase (P22303 whole entry): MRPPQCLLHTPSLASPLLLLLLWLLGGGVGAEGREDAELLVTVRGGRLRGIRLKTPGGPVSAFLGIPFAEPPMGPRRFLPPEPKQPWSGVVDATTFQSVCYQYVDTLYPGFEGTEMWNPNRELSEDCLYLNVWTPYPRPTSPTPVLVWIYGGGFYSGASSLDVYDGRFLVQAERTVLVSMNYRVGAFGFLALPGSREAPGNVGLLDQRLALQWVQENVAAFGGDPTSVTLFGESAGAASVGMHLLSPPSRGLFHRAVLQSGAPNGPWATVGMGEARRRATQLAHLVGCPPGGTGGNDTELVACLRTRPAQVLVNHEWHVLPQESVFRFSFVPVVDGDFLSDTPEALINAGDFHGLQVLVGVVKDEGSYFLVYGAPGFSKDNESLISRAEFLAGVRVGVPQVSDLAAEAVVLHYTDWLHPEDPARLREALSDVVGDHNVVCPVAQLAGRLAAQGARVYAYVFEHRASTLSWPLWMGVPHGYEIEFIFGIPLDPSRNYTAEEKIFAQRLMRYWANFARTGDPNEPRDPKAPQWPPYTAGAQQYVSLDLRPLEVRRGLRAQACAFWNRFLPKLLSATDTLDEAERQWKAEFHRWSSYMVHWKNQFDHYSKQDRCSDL

With `CN(C)CCOC(=O)Nc1ccncc1Br`, the Ki in [1] was determined as 273 µM; in experiment [2], 316 µM.
For the compound `CN(C)CCOC(=O)Nc1ccncc1`, the inhibition constant (Ki) is 20.4 µM in experiment [1] and 314 µM in experiment [2]. For the same compound, the Time in experiment [3] is 39.6 s; in [4] it was 25.5 s; in experiment [5] it was 12.1 s; in experiment [6] it was 49.7 s; in experiment [7], 20.3 s; in experiment [8], 43.6 s.
Turning to `CN(C)CCOC(=O)Nc1cc(Cl)nc(Cl)c1`, the Ki in [1] stood at 174 µM; in [2] it was 140 µM.
In the case of `C[N+](C)(C)CCOC(=O)Nc1ccncc1Br`, the Ki in [1] turned out to be 274 µM; in experiment [2], 116 µM.
Regarding `CN(C)CCOC(=O)Nc1ccnc(Cl)c1`, the figures for the Ki in experiment [1] and in experiment [2] were 380 µM and 208 µM, respectively.
For the compound `C[N+](C)(C)CCOC(=O)Nc1ccncc1.[I-]`, the Time stood at 37.3 s in [9]; 30.6 s in experiment [10]; 21.4 s in [11]; 21.3 s in [12]; 21 s in experiment [13]; 40.4 s in [14]. Also, the inhibition constant (Ki) in [1] stood at 754 µM; in [2] it was 159 µM.
As to `Nc1ccncc1` [DALFAMPRIDINE], the Time in [15] was found to be 22.1 s; in [16] it was 33.6 s; in experiment [17] it was 20.8 s; in experiment [5] it was 63.5 s; in [18] it was 38.5 s; in [19], 92.3 s. For the same compound, the results for the Time in experiment [20] and in experiment [7] were 20.3 s and 46.3 s, respectively.
On to `CC(C)(C)C(=O)OCC[N+](C)(C)C.CC(C)(C)C(=O)[O-]`, for which the Time is 45.8 s in experiment [21], 14.5 s in experiment [22], 36.8 s in experiment [23] and 38.8 s in experiment [24].
On to `C[N+](C)(C)CCOC(=O)Nc1cc(Cl)nc(Cl)c1.[I-]`, for which the results for the Ki in experiment [1] and in experiment [2] were 19.5 µM and 64.4 µM, respectively. The Time is listed as 56.9 s in [25]; 21.4 s in experiment [26]; 19 s in experiment [27]; 32.3 s in experiment [28]; 36.8 s in experiment [29]; 19.7 s in experiment [30]. Further, the Time in experiment [31] was 14.4 s; in experiment [32], 92.9 s.
For the compound `C[N+](C)(C)CCOC(=O)Nc1ccnc(Cl)c1`, the inhibitory constant (Ki) in experiment [1] came out at 161 µM; in experiment [2], 151 µM.

For orientation: Ki means a measure of affinity in units of concentration, obtained from inhibition or displacement. Read a high Ki as a looser hold on the target.
